Reference: PMC6682311 (ChemMedChem, 2019)

Legend:
[1] = system: M. smegmatis mc^2155 (ATCC 700084); test: Broth microdilution determination of minimum inhibitory concentrations; assay type: cell-based, Mycobacterium smegmatis
M. smegmatis biofilms [2] = test: Biofilm inhibition assay; assay type: cell-based, Mycobacterium smegmatis
M. smegmatis biofilms [3] = test: Synergy dispersion assay of compound with INH/RIF on pre-formed biofilms; assay type: cell-based, Mycobacterium smegmatis; conditions: INH 256 + RIF 128 µg mL^−1
in vitro [4] = conditions: mouse, plasma, pH 7.4
[5] = Microsome stability assay; conditions: male, CD-1, mouse, microsomes, pH 7.4
in vitro [6] = conditions: male, CD-1, mouse, microsomes, pH 7.4
[7] = Table 3, trifluoromethyl 2-AIs, no unit printed for these values

| Structure (SMILES) | fold reduction in EC50 with antibiotics versus compound alone (M. smegmatis biofilms [3]) | half-life at 100 µM (in vitro [4]) | half-life at 100 µM [5] | MIC [1, 7] | also measured |
| --- | --- | --- | --- | --- | --- |
| CCCCCCc1ccc(-c2nc(N)[nH]c2C(F)(F)F)cc1 [Compound 12g, 4-(4-Hexylphenyl)-5-(trifluoromethyl)-1H-imidazol-2-amine] | three-fold reduction | 4.43 h | 0.978 h | – | MIC ([1]; Table 2, 4,5 substituted 2-AIs, unit printed in text b20 only): >200 µM; IC50 (M. smegmatis biofilms [2]; Table 2, highest concentration tested 50 µM): 6.8 ± 0.9 µM |
| CCCOc1ccc(-c2nc(N)[nH]c2C(F)(F)F)cc1 [Compound 12h, 4-(4-Propoxyphenyl)-5-(trifluoromethyl)-1H-imidazol-2-amine] | – | – | – | 200 | – |
| CCCCOc1ccc(-c2nc(N)[nH]c2C(F)(F)F)cc1 [Compound 12i, 4-(4-Butoxyphenyl)-5-(trifluoromethyl)-1H-imidazol-2-amine] | – | – | – | 200 | – |
| CCCCCOc1ccc(-c2nc(N)[nH]c2C(F)(F)F)cc1 [Compound 12j, 4-(4-(Pentyloxy)phenyl)-5-(trifluoromethyl)-1H-imidazol-2-amine] | four-fold reduction | 4.8 h | 1.02 h | 200 | IC50 (M. smegmatis biofilms [2]; Table 3): 7.4 ± 0.6 µM |
| CCOc1ccc(NC(C)=O)cc1 [Phenacetin] | – | – | – | – | half-life at 100 µM (in vitro [6]): 0.59 h |
| CC(C)NCC(O)COc1cccc2ccccc12 (centres unmarked) [Propanolol, reference compound] | – | 0.343 h | – | – | – |
